Like-named read-outs stand apart in the source and are kept apart here.
Biological target: Full-length human SAMHD1 (Homo sapiens, UniProt Q9Y3Z3)
Test: Enzyme-coupled malachite green
Assay type: biochemical
Conditions: for Hill slope h: variable Hill slope fit (eq 2); for SAMHD1 inhibition (in words): MG assay dose-response curves

Chain of Full-length human SAMHD1 (Q9Y3Z3 whole entry): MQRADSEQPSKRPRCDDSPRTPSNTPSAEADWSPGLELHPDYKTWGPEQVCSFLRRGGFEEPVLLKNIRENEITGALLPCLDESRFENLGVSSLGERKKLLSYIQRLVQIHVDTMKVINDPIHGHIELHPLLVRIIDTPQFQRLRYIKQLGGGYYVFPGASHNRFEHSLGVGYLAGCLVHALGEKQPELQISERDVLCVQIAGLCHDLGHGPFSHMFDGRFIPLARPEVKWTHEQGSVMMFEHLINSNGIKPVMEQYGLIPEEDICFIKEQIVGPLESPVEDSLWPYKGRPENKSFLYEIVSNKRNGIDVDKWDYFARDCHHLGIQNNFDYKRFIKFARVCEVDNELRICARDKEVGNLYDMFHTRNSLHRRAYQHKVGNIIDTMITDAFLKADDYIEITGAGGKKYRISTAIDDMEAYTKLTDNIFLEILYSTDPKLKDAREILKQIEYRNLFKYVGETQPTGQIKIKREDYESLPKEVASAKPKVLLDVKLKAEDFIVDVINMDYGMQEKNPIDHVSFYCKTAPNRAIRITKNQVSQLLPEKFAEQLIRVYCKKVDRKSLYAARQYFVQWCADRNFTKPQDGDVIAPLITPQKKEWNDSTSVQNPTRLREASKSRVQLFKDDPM

Row | SMILES | SAMHD1 inhibition (in words) | other results
1 | CC(=O)OCC1=C(C(=O)O)N2C(=O)[C@@H](NC(=O)CCC[C@@H](N)C(=O)O)[C@H]2SC1 [CC-Zn, cephalosporin C] | – | Hill slope h (MG assay dose-response): 1.4 ± 0.1; fold more potent inhibitor (Zn2+ salt vs sodium salt of Ceph C) (ratio of IC50 values of the two salt forms): 200 fold
2 | CC(=O)OCC1=C(C(=O)O)N2C(=O)[C@@H](NC(=O)CCC[C@@H](N)C(=O)O)[C@H]2SC1 [Ceph C, cephalosporin C] | weakly inhibitory | –
3 | [Cl-].[Cl-].[Zn+2] [Zn^2+] | – | Hill slope h (MG assay dose-response): 1.2 ± 0.1; IC50 (MG assay dose-response, 0.5 μM SAMHD1, 5 μM PPase, 0.1 mM dGTP, 5 mM MgCl2): 2.1 ± 0.2 µM; inhibition after addition of EDTA (approximately stoichiometric amounts of EDTA added): completely rescued
4 | Nc1ncnc2c1ncn2[C@H]1C[C@H](O)[C@@H](CO)O1 [dAdo, deoxyadenosine] | only dGuo showed significant inhibition | –
5 | Nc1ccn([C@H]2C[C@H](O)[C@@H](CO)O2)c(=O)n1 [dCyt, deoxycytosine] | only dGuo showed significant inhibition | –
6 | Nc1nc2c(ncn2[C@H]2C[C@H](O)[C@@H](CO)O2)c(=O)[nH]1 [dGuo, deoxyguanosine] | significant inhibition | IC50: 488 ± 50 µM
7 | O=c1[nH]cnc2c1ncn2[C@H]1C[C@H](O)[C@@H](CO)O1 [dIno] | significantly less inhibitory | –
8 | Cc1cn([C@H]2C[C@H](O)[C@@H](CO)O2)c(=O)[nH]c1=O [dThy, deoxythymidine] | only dGuo showed significant inhibition | –
9 | O=c1ccn([C@H]2C[C@H](O)[C@@H](CO)O2)c(=O)[nH]1 [dUrd, deoxyuridine] | only dGuo showed significant inhibition | –
10 | Nc1nc2c(ncn2[C@H]2CC[C@@H](CO)O2)c(=O)[nH]1 [ddGuo] | significantly weaker inhibition | –
11 | Nc1nc2c(ncn2[C@@H]2O[C@H](CO)[C@@H](O)[C@H]2O)c(=O)[nH]1 [rGuo] | significantly weaker inhibition | –

Source: article PMC4475474 (Journal of biomolecular screening, 2015)
